Measurements from patent US20250375453A1, “HIGH-EFFICIENCY ANTIMICROBIAL COMPOSITION” (CM4CURE S.A., priority 2023, published 2025).

System: Vancomycin-resistant Enterococcus faecalis (VRE, ATCC BAA-2573)
Assay: Synergy checkerboard assay / broth micro-dilution MIC (ISO 20776-1 with modifications)
Assay type: cell-based
Description: • 1. Preparation of the inoculum of Vancomycin-resistant Enterococcus faecalis (VRE, ATCC BAA-2573). Inoculum is prepared by suspension of 1 colony of bacteria (medium size colony from Tryptic Soy agar plate) in 3 ml of Tryptic Soy broth (TSB) using a 200 μL tip. The solution is mixed by vortexing and incubated at 37° C. overnight (19-24 hours) under shaking at 200 rpm. • 2. Preparation of the Antimicrobial dilution on the day of the experiment. Stock solutions are performed with distilled water for all antimicrobial compound except for Fluometacyl (ethanol). Dilution for each condition is made in Mueller-Hinton broth (NMB). 50p of APIs dilution is added to wells of a 96 wells microplate (each condition in duplicate-triplicate). • Antimicrobial compounds were prepared as follows: • Fluometacyl (F) (4 mg/mL in 100% EtOH) served as a master stock. To obtain the final concentration of 40 μg/ml in the bacterial suspension, initial stock of 160 μg/ml in Mueller-Hinton broth (MHB) was prepared and further 2-fold diluted using the following serial dilution scheme: • (1): 40 μg/ml (160 μg/ml, prepared in MHB) • (2): 20 μg/ml (80 μg/ml, dilution in MHB) • (3): 10 μg/ml (40 μg/ml, dilution in MHB) • (4): 5 μg/ml (20 μg/ml, dilution in MHB) • (5): 2.5 μg/ml (10 μg/ml, dilution in MHB) • (6): 1.25 μg/ml (5 μg/ml, dilution in MHB) • Chlorhexidine acetate (CHLX) (2 mg/mL in H2O) served as a master stock. To obtain the final concentration of 4 μg/ml in the bacterial suspension, initial stock of 16 μg/ml in MHB was prepared and further 2-fold diluted using the following serial dilution scheme: • (1): 8 μg/ml (32 μg/ml, prepared in MHB) • (2): 4 μg/ml (16 μg/ml, prepared in MHB) • (3): 2 μg/ml (8 μg/ml, dilution in MHB) • (4): 1 μg/ml (4 μg/ml, dilution in MHB) • (5): 0.5 μg/ml (2 μg/ml, dilution in MHB) • (6): 0.25 μg/ml (1 μg/ml, dilution in MHB) • 3. Preparation of VRE. Before the experiment, the VRE bacterial suspension (incubated overnight) is diluted 100× in TSB in 4 mL of TSB and grown at 37 C under agitation 200 rpm until OD600 reaches 0.08 to 0.16. This corresponds to the cell density […]. 100 μl of the bacterial solution (OD600 ranging from 0.08 to 0.16) is added to 9 900 μL of Mueller-Hinton Broth (MHB) (dilution 1:100). • 4. Preparation of a 96-well plate. 100 μL of bacteria (diluted 1:100 in MHB from the point 3) is added in each well of the plate containing 100 μL of the serially diluted APIs alone or in combinations as shown in the p. 2. Bacteria should be added into the 96-well plate within the 30 minutes following the preparation of the bacteria in order to maintain the same number of CFU/mL. Plates are incubated at 37° C. overnight. A condition with MHB medium alone or bacteria without APIs will also be added as the control conditions. Since fluometacyl is dissolved in ethanol, extra conditions are added: MHB with ethanol in order to assess the effect of ethanol on bacterial growth. • Following scheme is applied: • 2 antibacterial compounds: 50 μL of a antimicrobial 1+50 μL of a antimicrobial 2+100 μL of bacterial suspension in MHB • 1 antibacterial compound: 50 μL of a drug 1/2+50 μL of MHB+100 μL of bacterial suspension in MHB • Growth control: 100 μL MHB (+/−Ethanol)+100 μL of bacterial suspension • BLANK: MHB only • 5. CFU counting of the initial challenge inoculum. 10 μL of the solution of the bacteria used as the positive control is diluted in 10 mL of TSB. 100 μL is spread on Tryptic Soy agar (done in triplicate) and incubated at 37° C. overnight • 6. Results. The MIC is the lowest concentration that inhibits completely the visible growth of the bacteria (no turbidity in a well). The OD at 600 nm is also recorded for each well as back-up data.
Synergy evaluation resulting from the comparison between activity of the combination of the antimicrobial compounds and their individual activities was represented as the Fractional Inhibitory Concentration (FIC) index value. […]

[H]/N=C(\N/C(=N/[H])NCCCCCCNC(=N)NC(=N)Nc1ccc(Cl)cc1)Nc1ccc(Cl)cc1 [Chlorhexidine, chlorhexidine]
MIC (Enterococcus faecalis, antimicrobial alone, read-out: MIC Monotherapy (X)): 4000 µg/mL | Ratio Y/X (MIC combination / MIC monotherapy): 0.125-0.5 | MIC combination dual therapy (Y) (in FLC + CHX combination): 500 to 2000 µg/mL
